Data on nine compounds can be found in US10287337B2 (priority 2015, dated 2019).

“And” between values parts separate entries of the source, which are not always exact repeats. Equal entries are not always repeated. No end group written: not given here.

Test [1] relates to spared nerve injury-induced neuropathic pain in rats. Put plainly: Spared nerve injury (SNI)-induced neuropathic pain model, thermal and mechanical pain thresholds. The class given is in vivo, rat. The settings on record: rat, in vivo. As to the method: Of the three branches of the sciatic nerve the tibial and common peroneal nerves were cut and ligated leaving the sural nerve intact. Pre-surgery baselines (BL, 100%) of the thermal and mechanical pain thresholds of the ipsilateral hindpaws were measured using the Hargreaves thermal stimulator (6.0 A with a surface temperature of 30° C.; Hargreaves et al., 1988) and von Frey hair monofilaments (up-down method, Chaplan et al., 1994). […] All drug testing was conducted with this post-SNI period.
The rat recovered from anesthesia within a few minutes and the thermal and mechanical pain thresholds were determined at 0.5, 1, 2, 3, 4, 5 and 6 hour after the treatment using the methods described above.
Using the same test protocol in a different cohort of SNI rats, novel AFA-peptide 3 (0.1, 1 and 3 μM, each 50 μL) or the vehicle (50 μL) was injected into the ipsilateral hindpaws under a brief and light anesthesia condition (with 2.5% isoflurane). The thermal and mechanical pain thresholds were determined at 0.5, 1, 2, 3, 4, 5 and 6 hour after the treatment. […]

The subject of test [2] is STZ-induced diabetic pain in rats. Briefly: Streptozotocin (STZ)-induced diabetic neuropathic pain model. The settings on record: rat, in vivo. As to the method:
Painful peripheral neuropathy is a common secondary complication of diabetes mellitus. Streptozotocin (STZ)-induced diabetic polyneuropathy causes more broad pain and has neurogenic inflammation component in rodents (Bishnoi et al., 2011). Prior to STZ administration, each rat's baseline of thermal and mechanical thresholds on their individual hindpaws were assessed using the Hargreaves thermal pain test, and von Frey mechanical pain test, respectively.
After removing the patches, hindpaw withdrawal latencies induced by continuous and noxious heat (Hargreaves) were assessed at 1 hour post-microneedle application.

In test [3] the test system is UVB radiation-induced inflammatory pain in rat cheek. The format is in vivo. The settings on record: rat, in vivo.
Excerpt: Ultraviolet B (UVB) radiation causes cutaneous inflammation in humans and animals. One important clinical consequence of UVB-induced inflammation is causing hyperalgesia. Changes in thermal sensitivities in the area of primary UVB irradiation are well documented both in humans and in the animal models (Zhang et al., 2009). […] This model provides an experimental model of post radiation pain and can mimic one type of burn pain. To determine the magnitude of anti-inflammatory pain effects for a given drug transdermally delivered by way of microneedle delivery, the depilated rat's cheeks were exposed to an inflammatory dosage of Ultraviolet B radiation (Zhang et al., 2009).
With the skin of a rat's cheek was stretched, the circular (8 mm in diameter) fiberglass applicator of the UV Curing Device (Dymax Bluewave 200) was applied to the center of the rat's cheek. To produce an appropriate inflammation, a total dose of 1200 mJ/cm^2 UVB was administered to one rat cheek for 25 seconds. The same procedure was performed on the rat's contralateral cheek. Upon completion of UVB irradiation, all rats were returned to their home cages and were assessed for thermal pain between 24-48 hours later. […] The rats were lightly anesthetized with urethane (800 mg/kg, IP) and heat-induced withdrawal latencies of the cheeks (an indicator of C fiber stimulation responses) were measured. […] A sham control group (n=6) were only completely depilated and cleansed with ethanol wipes but without UVB challenge.
After removing patches, cheek withdrawal latencies induced by continuous and noxious heat were assessed at different time points from the end of the 20 minute treatment period up to 3 hours post treatment.
The patches were applied on the rat cheek for 20 minutes. After removing the patches, cheek withdrawal latencies induced by continuous and noxious heat were assessed at different time points up to 3 hours as described above.
(§1) After removing the patches, cheek withdrawal latencies induced by continuous and noxious heat were assessed at different time points up to 3 hours.
Accordingly, anti-inflammatory effects were examined 48 hours post-UVB and after the application of the patch. Twelve rats were subjected to UVB radiation (1200 mJ/cm^2). […] The patch was placed over the inflamed area for a period of 20 minutes. […] Sham control group rats (n=6) were completely depilated and cleansed with ethanol wipes but without any other treatment. The rats were returned to their home cages, and assessed for thermal pain responses 48 hours later. As usual, cheek withdrawal latencies in response to continuous and noxious heat were recorded over a 3-hour time period (hours 49-51 post-UVB).
as §1
After removing the patches, cheek withdrawal latencies induced by continuous and noxious heat were assessed at different time points from 20 minutes post administration up to 3 hours.
Because UVB-irradiation may increase skin permeability, a topical formulation, but not limited to the sample shown here, was made.

Test [4] deals with normal physiological pain sensation in normal rats. Briefly: Normal rats cheek withdrawal latency to noxious heat. The conditions noted are these: rat, in vivo. As for the experimental part: Ideal therapeutics of anti-inflammatory pain or anti-hypersensitivity (occurred in neuropathic pain) should not interfere with normal physiological pain sensations. […] After removing the patches, cheek withdrawal latencies (mean±SEM) were assessed using continuous and noxious heat at different time points within the initial 3 hours test period.

Test [5] relates to electrocutaneous stimulation-induced facial pain in rats. Put plainly: Electrocutaneous stimulation-induced facial inflammatory pain model. The class given is in vivo, rat. The settings on record: rat, in vivo. As for the experimental part: In humans electrocutaneous stimulation elicited vasodilatation in the cheek (Vassend and Knardahl, 2005). […] Baseline facial thermal thresholds of rats (Sprague-Dawley, male, 260-300 g) were assessed on the rats' depilated left cheek and then each rat received 1 hour of electrocutaneous facial stimulation using WPI ISOSTIM™ A320 (World Precision Instruments, 0.4 mA intensity, 10 ms duration, Is inter-pulse interval). 24 hr after stimulation (Day 1), each rat's thermal pain threshold mediated by A-delta fiber and C fiber were separately measured using a thermal nociception lamp (variable voltage regulator model: No. SC-3M) to evoke A-delta and C nerve fiber-mediated cheek withdrawal. […] Thermal thresholds were measured once every 0.5 hour for the first 3 hours post-I.N. dosing, and then 4, 5, and 6 hour post-I.N. dosing. Voltage regulator set to 90V for A-delta fiber testing and 45V for C fiber testing. Cutoff set at 6 seconds and 20 seconds for A-delta fiber and C fiber testing, respectively.

Test [6] deals with paw incision-induced postoperative pain in rats. Put plainly: Paw incision-induced postoperative pain model, mechanical pain threshold. The class given is in vivo, rat. The conditions noted are these: rat, in vivo. The text has this:
A clinically applicable incision model in rodents is a hind-paw deep incision that produces a robust mechanical and cold allodynia, and thermal hyperalgesia (Pogatzki et al., 2003; Xu and Brennan, 2010). Male rats (Sprague-Dawley, 250-260 g, Harlan) used (n=8/group) were anesthetized with 2.5% isoflurane and the skin of the dorsolateral hindpaw surface were prepped by first depilitating it (using Nair), followed by rinsing and application of povidone-iodine. Afterwards, a 5 mm longitudinal incision was made near the hairy/glabrous border though the skin and subcutaneous fascia of the left hindpaw as described by (Pogatzki et al., 2003; Xu and Brennan, 2010). After briefly elevating the underlying muscle with curved forceps the wound is closed with a single nylon (8-0) mattress stitch.
Pre-surgery (baseline) and 24 hours after the surgery, the mechanical allodynia of the incision hindpaws of the rats were assessed using von Frey monofilaments with an up/down procedure (Chaplan et al., 1994). […] Mechanical pain thresholds were measured at 0.5, 1, 2, 3, 4, 5 and 6 hours post-intradermal injection.

For test [7], the system named is UVB radiation-induced inflammatory pain in rat cheek. The class given is in vivo. The settings on record: rat, in vivo. This is another data set of the same source.
The target in test [8] is T1, human calcitonin CGRP1 (CGRP1) membrane (Homo sapiens, UniProt O60894+Q16602).
T1 construct: purchased Perkin Elmer (Waltham, Mass.)
The format is binding. The conditions noted are these: for Hill slope: 0.24 nM [125I]-CGRP, Mean±SD; for binding affinity on CGRP receptors (in words): comparison between peptides. As to the method: CGRP1 membrane was homogenized in the assay buffer (50 mM Tris-HCl pH 7.4, 5 mM MgCl2, 0.5% BSA, 0.05% Tween20). […] After 1 h of incubation, at room temperature, samples were filtered, using a Tomtec cell harvester, through glass fiber filters that had been presoaked in 0.05% polyethyleneimine and washed with the cold Tris buffer (50 mM Tris-HCl pH7.4). Filters were counted on a betaplate reader (Wallac).

T1 sequence (O60894 27-148): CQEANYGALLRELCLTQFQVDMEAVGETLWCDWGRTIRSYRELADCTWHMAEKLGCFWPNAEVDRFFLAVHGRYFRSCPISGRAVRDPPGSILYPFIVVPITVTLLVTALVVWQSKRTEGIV
T1 sequence (Q16602 23-461): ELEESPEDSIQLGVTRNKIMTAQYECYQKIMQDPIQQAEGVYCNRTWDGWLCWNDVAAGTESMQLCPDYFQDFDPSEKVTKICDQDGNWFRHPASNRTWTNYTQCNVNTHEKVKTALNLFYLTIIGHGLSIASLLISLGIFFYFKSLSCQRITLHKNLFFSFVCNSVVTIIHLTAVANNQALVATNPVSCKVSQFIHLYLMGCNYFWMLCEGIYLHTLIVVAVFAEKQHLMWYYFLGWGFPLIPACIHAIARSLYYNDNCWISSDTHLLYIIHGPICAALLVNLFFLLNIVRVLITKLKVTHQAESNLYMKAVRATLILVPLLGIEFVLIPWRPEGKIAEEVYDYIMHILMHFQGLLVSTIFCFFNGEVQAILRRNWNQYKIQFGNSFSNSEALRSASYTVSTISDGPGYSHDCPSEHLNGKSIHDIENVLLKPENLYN

In the case of `CSCC[C@H](NC(=O)CNC(=O)CNC(=O)[C@H](CO)NC(=O)[C@H](CCCNC(=N)N)NC(=O)[C@H](CO)NC(=O)[C@H](CC(C)C)NC(=O)[C@H](CC(C)C)NC(=O)CNC(=O)[C@H](C)NC(=O)[C@H](CC(C)C)NC(=O)[C@H](CCCNC(=N)N)NC(=O)[C@H](Cc1c[nH]cn1)NC(=O)[C@@H](NC(=O)[C@@H](N)C(C)C)[C@@H](C)O)C(=O)N[C@H](C(=O)N[C@@H](CCCCN)C(=O)N[C@@H](CO)C(=O)N[C@@H](CC(N)=O)C(=O)N[C@@H](Cc1ccccc1)C(=O)N[C@H](C(=O)N1CCC[C@H]1C(=O)N[C@H](C(=O)N[C@@H](CC(N)=O)C(=O)N[C@H](C(=O)NCC(=O)N[C@@H](CO)C(=O)N[C@@H](CCCCN)C(=O)N[C@@H](C)C(=O)N[C@@H](Cc1ccccc1)C(N)=O)C(C)C)[C@@H](C)O)C(C)C)C(C)C` [CGRP 8-37], in test [1], the “duration of anti-allodynic effect” value is given as “up to 6 hours”, the “duration of thermal antihyperalgesic effect” value is reported as “up to 5 hours”, the “effect on thermal threshold (in words)” value is “full reversal to baseline thermal threshold values” and the “return toward baseline mechanical sensitivity” value is given as about 25%. Besides, in test [1], the “thermal and mechanical pain thresholds (in words)” value was “reduced SNI-induced neuropathic pain”; the “time of full reversal / peak antihyperalgesic effect after application” value was “around 1 hour”; the “time of maximal anti-allodynic effect post-microneedle application” value turned out to be 3 h. Moreover, in test [2], the “return to mechanical pain baseline values” worked out at 35% and the “thermal threshold (in words)” value is on record as “full return to their baseline thermal thresholds”. In addition, in test [3], the “Average Reduced Latency for Inflammation, Mean” value is 9.9 s and 10.5 s and 11.2 s and 11.0 s and 12.2 s and 8.0 s and 9.1 s; the “C-fiber-mediated thermal pain thresholds vs vehicle (in words)” value is “significant and substantial increase”; the duration of action was found to be 2 h. In addition, in test [4], the “Normal Rats Average Pain Response Latency, Mean” value is 10.3 s and 11.0 s and 11.2 s and 10.6 s and 10.5 s and 9.6 s and 10.1 s and 10.2 s; the “analgesic effect on normal nociceptive pain (in words)” value is “did not produce any measurable analgesic effect”. Moreover, in test [5], the “A-delta fiber-mediated pain withdrawal latencies vs vehicle (in words)” value is recorded as “insignificant analgesic effects”; the “C-fiber-mediated pain withdrawal latencies vs vehicle (in words)” value is “even more substantial and significantly prolonged”; the “thermal pain thresholds in naïve, non-facial stimulation rats (in words)” value was “did not alter thermal pain thresholds”. Also, in test [6], the “mechanical pain thresholds vs vehicle (in words)” value is recorded as “significantly increased mechanical pain thresholds” and the “onset of analgesic effect post treatment” value turned out to be 1 h. In test [7], the “A-delta-fiber-mediated responses (in words)” value is reported as “little effects”.
For the compound `NCC1(CC(=O)O)CCCCC1` [Gabapentin, gabapentin], in test [1], the “duration of thermal antihyperalgesic effect” value was 3 h, the “effect on thermal threshold (in words)” value is listed as “significant antihyperalgesic effect” and the “time of full reversal / peak antihyperalgesic effect after application” value came out at 1 h.
Turning to `CCN(CC)CC(=O)Nc1c(C)cccc1C` [Lidocaine, lidocaine], the “thermal and mechanical pain thresholds (in words)” value in test [1] is given as “produced positive control”. The “analgesic effect on normal nociceptive pain (in words)” value in test [4] is on record as “produced analgesic effect on normal nociceptive pain”.
The term Hill slope denotes the slope factor of the fitted curve. For the compound “H-NFAPTNVGPFAF-NH2 [AFA- peptide 10, NH2-N-F-A-P-T-N-V-G-P-F-A-F-CONH2]”, in test [8], the Hill slope is given as 1.07 ± 0.01; the “binding affinity on CGRP receptors (in words)” value (shortened to “binding affinity”) was “higher affinities than conventional CGRP 27-37 and CGRP 8-37”.
On to “H-NFFPTNVGPFAF-NH2 [AFA- peptide 9, NH2-N-F-F-P-T-N-V-G-P-F-A-F-CONH2]”, for which, in test [8], the Hill slope is on record as 1.07 ± 0.05; the “binding affinity” value is “higher affinities than conventional CGRP 27-37 and CGRP 8-37”.
For the compound “H-NFIPTNVGPFAF-NH2 [AFA- peptide 6, NH2-N-F-I-P-T-N-V-G-P-F-A-F-CONH2]”, the Hill slope in test [8] is reported as 1.13 ± 0.13.
On to “H-NFLPTNVGPFAF-NH2 [AFA- peptide 7, NH2-N-F-L-P-T-N-V-G-P-F-A-F-CONH2]”, for which, in test [8], the Hill slope was determined as 1.03 ± 0.15; the “binding affinity” value is “higher affinities than conventional CGRP 27-37 and CGRP 8-37”.
For “H-NLVPTNVGPFAF-NH2 [AFA- peptide 8, NH2-N-L-V-P-T-N-V-G-P-F-A-F-CONH2]”, the Hill slope in test [8] stood at 0.88 ± 0.18.
Same read-out and setting: the same measure for YVPTAVGPFAF-NH2 [CGRP 27-37]: 1.62 ± 0.25.
